Molecular target: T1, AR (Homo sapiens, UniProt P10275)
T1 construct: endogenous in cells; host or cells: VCaP cells
T1 sequence (P10275 1-920): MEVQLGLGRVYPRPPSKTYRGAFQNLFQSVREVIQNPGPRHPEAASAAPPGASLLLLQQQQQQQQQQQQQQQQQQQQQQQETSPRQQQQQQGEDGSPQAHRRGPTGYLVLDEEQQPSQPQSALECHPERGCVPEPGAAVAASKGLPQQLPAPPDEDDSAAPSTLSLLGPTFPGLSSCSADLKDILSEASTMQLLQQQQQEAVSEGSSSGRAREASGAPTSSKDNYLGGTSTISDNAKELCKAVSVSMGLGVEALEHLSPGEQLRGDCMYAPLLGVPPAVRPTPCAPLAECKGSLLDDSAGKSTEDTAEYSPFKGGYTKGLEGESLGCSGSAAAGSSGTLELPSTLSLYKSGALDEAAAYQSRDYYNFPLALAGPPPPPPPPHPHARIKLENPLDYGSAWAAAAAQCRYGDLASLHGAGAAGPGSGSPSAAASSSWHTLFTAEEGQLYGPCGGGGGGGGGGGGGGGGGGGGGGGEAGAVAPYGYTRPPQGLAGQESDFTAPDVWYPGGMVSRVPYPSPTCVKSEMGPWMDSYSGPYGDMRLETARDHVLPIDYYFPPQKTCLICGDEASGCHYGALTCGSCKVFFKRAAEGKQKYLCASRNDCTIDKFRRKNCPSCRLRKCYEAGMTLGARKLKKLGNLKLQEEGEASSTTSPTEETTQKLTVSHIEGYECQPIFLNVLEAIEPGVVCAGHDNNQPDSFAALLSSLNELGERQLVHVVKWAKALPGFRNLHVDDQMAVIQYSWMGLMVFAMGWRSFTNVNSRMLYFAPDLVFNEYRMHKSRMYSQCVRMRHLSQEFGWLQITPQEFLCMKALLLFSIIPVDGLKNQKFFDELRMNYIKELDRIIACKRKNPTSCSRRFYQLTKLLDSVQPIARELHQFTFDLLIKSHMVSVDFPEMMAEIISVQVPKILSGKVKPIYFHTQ
Assay: VCAP AR Degradation Assay
Format: cell-based
Conditions: VCaP cells, 24 h, AR ELISA; for DC50: concentration of compound when AR level = 50% of DMSO control (50% AR degradation); for Y: lowest measured AR level normalized to DMSO control (AR degradation efficiency)
How it was run: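 VCaP cells (DMEM, 8% FBS) were treated 24 h at 37 °C with a 10-point 1:3 series from 5 µM final, with 0.1% DMSO control. Total AR in lysates was measured by sandwich ELISA as percent of DMSO. A 4-parameter fit gave DC50 (50% of control) and EC50; fitted Ymin marks degradation efficiency.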

Structure (SMILES) | DC50 | Y
Cn1nc(N2CCC(=O)NC2=O)c2cccc(NC(=O)CN3CCC(CCO[C@H]4CC[C@H](N5C(=S)N(c6ccc(C#N)c(C(F)(F)F)c6)C(=O)C5(C)C)CC4)C(F)(F)C3)c21 (stereo partly drawn) [Cmpd 35, 2-(4-(2-(((trans)-4-(3-(4-Cyano-3-(trifluoromethyl)phenyl)-5,5-dimethyl-4-oxo-2-thioxoimidazolidin-1-yl)cyclohexyl)oxy)ethyl)-3,3-difluoropiperidin-1-yl)-N-(3-(2,4-dioxotetrahydropyrimidin-1(2H)-yl)-1-methyl-1H-indazol-7-yl)acetamide] | ≤ 2 nM | * (0<Y≤20%)
Cn1nc(N2CCC(=O)NC2=O)c2cccc(NC(=O)CN3CCC(CCO[C@H]4CC[C@H](N5C(=S)N(c6cnc(C#N)c(C(F)(F)F)c6)C(=O)C5(C)C)CC4)C(F)(F)C3)c21 (stereo partly drawn) [Cmpd 36, 2-(4-(2-(((trans)-4-(3-(6-Cyano-5-(trifluoromethyl)pyridin-3-yl)-5,5-dimethyl-4-oxo-2-thioxoimidazolidin-1-yl)cyclohexyl)oxy)ethyl)-3,3-difluoropiperidin-1-yl)-N-(3-(2,4-dioxotetrahydropyrimidin-1(2H)-yl)-1-methyl-1H-indazol-7-yl)acetamide] | ≤ 2 nM | * (0<Y≤20%)
